From patent EP2787958B1, “CHELIDONIUM MAJUS EXTRACTS AND THEIR USE IN THE TREATMENT OF SKIN DISORDERS AND PROMOTION OF SKIN REGENERATION” (priority 2011, dated 2013)
Read-outs that look alike come from different tables or passages of the source.

Tests used:
interleukin 6 (IL-6) = assay: Inflammatory cytokines in cell supernatant (Mosaic ELISA microarray): IL-6; type: cell-based, Human; conditions: for IL-6 ng/(ml* No. of cells from photo) ± SD: 24 hours
Protocol: (§1) The inflammatory cytokines, CD40 ligand (CD40L), interferon γ (INF-γ), interleukin 1α (IL-1α), interleukin 1β (IL-1β), interleukin 6 (IL-6), interleukin 8 (IL-8), interleukin 17 (IL-17) and tumour necrosis factor α (TNF-α) were determined qualitatively and quantitatively. Each measurement was performed in duplicate using a Mosaic™ ELISA protein microarray assay system from R&D System in accordance with the supplier's instructions. Furthermore, with the aim of obtaining a correlation model between light signal intensity and cytokine concentration, a calibration curve using 6 concentrations was performed for each of them. Analysis of the data was performed using the dedicated Q-View™ Imager software package from Quansys Biosciences

[1] = Anti-radical activity (decay of the DPPH radical); type: biochemical; conditions: for Anti-radical (skin protective): 24 hours
Protocol: With regard to assays aimed at evaluating anti-radical activity, a chemical test was used where the decay of the diphenylpicrylhydrazyl (DPPH) radical is assessed in the absence or in the presence of the test substances. Indeed, the DPPH radical is used to test the ability of substances to act as free radical scavengers. DPPH in solution has a purple colour with a maximum absorbance peak at 517 nm which changes to yellow-colourless when this radical extracts a hydrogen atom from a radical scavenger to give rise to the reduced form DPPH-H. The assay has been conducted in quadruplicate in 96 well microplates (SARSTEDT Tissue Culture Plate 96-well flat bottom cell+). 50 µl of an ethanol solution of the test substance at 2X concentration and then 50 µl of a 200 µM solution of DPPH (MW 168,18, Aldrich 2,2-di(4-tert-octylphenyl)-1-picrylhydrazyl, free radical Lot# MKBF7574V Cat N° 257621-100 mg) have been added to each well of the microplate. A positive control consisting of 0.1 mM vitamin C and a negative control consisting of ethanol alone were included in each microplate. After 30 minutes from the addition of DPPH, photographs of the plates were taken (Canon PowerShot A610 5.0 Mpixels) and read spectrophotometrically at 530 nm.
Based on the analysis of the results reported in Table 9, some substances were selected for further characterisation of their anti-radical activity. For the selected substances, dose-activity curves were obtained and the IC50 value were computed using a non-linear regression model with the Hill equation at variable slope. Such substances had been selected due to both their anti-radical potential and the easiness of their isolation/production. The selection of substances was made in view of cosmetics applications. Moreover their activity on human dermal fibroblasts (HDF) is expected to be useful also for the development of dermatological medications. The selected substances are discussed below.

HDF cells [2] = assay: Evaluation of cell proliferation (counting of Sirius Red stained cells in photographs); conditions: for No. of cells from photo ± SD: 24 hours
interleukin 1β (IL-1β) = assay: Inflammatory cytokines in cell supernatant (Mosaic ELISA microarray): IL-1β; type: cell-based, Human; conditions: for IL-1β ng/(ml* No. of cells from photo) ± SD: 24 hours
Protocol: as §1

HDF cells [3] = assay: Summary of uses and toxic effects deduced from the cell assays (Table 1); type: cell-based, Human; conditions: for Anti-fibrotic (prevention of scar formation, also from acne) / Cytoprotective (antioxidant, anti-inflammatory and anti-ageing; useful also in the treatment of acne) / Cytotoxic / Irritant / Wound-healing: 24 hours
Protocol: Antiradical (skin protective): this is deduced from the free radical scavenger effects.
Revitalizing: this is deduced from the increased mitochondrial dehydrogenase effect.
Cytoprotective, with regard to oxidative damage (antioxidant, anti-inflammatory and anti-ageing): this is deduced from antagonising the stimulation of IL-1β and/or IL-6 induced by 100 µM H2O2 and from the absence of changes in cell morphology similar to the ones due to cell senescence.
Wound healing: this is deduced from the effect of inhibiting the production of IL-1β and by the effect of stimulating cell proliferation under standard growth conditions.
Cytotoxicity: this is deduced from the effect of reducing mitochondrial dehydrogenase activity or from the presence of morphologies characteristic of cell senescence.
Irritation: this is deduced from the effect of increased production of IL-6 and/or IL-1β under standard growth conditions.
Said uses in the fields of medicine and cosmetics or the toxic effects of the substances of the invention at a given dosage, for 24 hours, are summarized in Table 1 below.

[4] = test system: collagen produced by HDF cells; assay: Quantity of collagen produced by the cells (elution of Sirius Red)
[5] = test system: Human dermal fibroblasts (HDF); assay: Mitochondrial dehydrogenase activity (WST-1 formazan assay) in HDF cells; conditions: for Revitalizing agent: 24 hours; for activity at 1 µM / activity at 10 µM: Homo sapiens, Fibroblast, read-out: % mitochondrial dehydrogenase activity ± SD
[6] = Dose 1 µm (coptisine: 1 pm [sic])

COc1ccc2c(c[n+](C)c3c4cc5c(cc4ccc23)OCO5)c1OC [chelerythrine]
IL-6 production (effect in words) (interleukin 6 (IL-6); 1 µM, 34 ng/ml TGF-β1): antagonizes the production of IL-6
IL-6 ng/(ml* No. of cells from photo) ± SD (interleukin 6 (IL-6); 1 µM, 34 ng/ml TGF-β1): 510±43 ng/(ml* No. of cells from photo)
IL-6 production (effect in words) (interleukin 6 (IL-6); 1 µM, 100 µM H2O2): antagonizes the production of IL-6
IL-6 ng/(ml* No. of cells from photo) ± SD (interleukin 6 (IL-6); 1 µM, 100 µM H2O2): 626±8 ng/(ml* No. of cells from photo)
IL-6 ng/(ml* No. of cells from photo) ± SD (interleukin 6 (IL-6); 1 µM, Standard conditions): 396±14 ng/(ml* No. of cells from photo)
IL-6 production (effect in words) (interleukin 6 (IL-6); 1 µM, standard conditions): inhibits the production of IL-6
IL-6 production (effect in words) (interleukin 6 (IL-6); 10 µM, 34 ng/ml TGF-β1): stimulates IL-6 production
IL-6 ng/(ml* No. of cells from photo) ± SD (interleukin 6 (IL-6); 10 µM, 34 ng/ml TGF-β1): 4652±243 ng/(ml* No. of cells from photo)
IL-6 production (effect in words) (interleukin 6 (IL-6); 10 µM, 100 µM H2O2): stimulates IL-6 production
IL-6 ng/(ml* No. of cells from photo) ± SD (interleukin 6 (IL-6); 10 µM, 100 µM H2O2): 5844±328 ng/(ml* No. of cells from photo)
IL-6 ng/(ml* No. of cells from photo) ± SD (interleukin 6 (IL-6); 10 µM, Standard conditions): 572±14 ng/(ml* No. of cells from photo)
IL-6 production (effect in words) (interleukin 6 (IL-6); 10 µM, standard conditions): stimulates IL-6 production
% DPPH activity ([1]; 1 mM, 30 minutes): 115%
Anti-radical (skin protective) [1, 6]: No
Anti-radical (skin protective) ([1]; Dose 10 µm): No
cell proliferation (effect in words) (HDF cells [2]; 1 µM): tendency to stimulate cell proliferation
No. of cells from photo ± SD (HDF cells [2]; 1 µM, 34 ng/ml TGF-β1): 201±15
No. of cells from photo ± SD (HDF cells [2]; 1 µM, 100 µM H2O2): 289±14
No. of cells from photo ± SD (HDF cells [2]; 1 µM, Standard conditions): 229±20
cell proliferation (effect in words) (HDF cells [2]; 10 µM): marked inhibition of proliferation
No. of cells from photo ± SD (HDF cells [2]; 10 µM, 34 ng/ml TGF-β1): 10±4
No. of cells from photo ± SD (HDF cells [2]; 10 µM, 100 µM H2O2): 10±5
No. of cells from photo ± SD (HDF cells [2]; 10 µM, Standard conditions): 3±3
IL-1β production (effect in words) (interleukin 1β (IL-1β); 1 µM, 34 ng/ml TGF-β1): antagonizes the production of IL-1β
IL-1β ng/(ml* No. of cells from photo) ± SD (interleukin 1β (IL-1β); 1 µM, 34 ng/ml TGF-β1): 98±10 ng/(ml* No. of cells from photo)
IL-1β production (effect in words) (interleukin 1β (IL-1β); 1 µM, 100 µM H2O2): antagonizes the production of IL-1β
IL-1β ng/(ml* No. of cells from photo) ± SD (interleukin 1β (IL-1β); 1 µM, 100 µM H2O2): 69±20 ng/(ml* No. of cells from photo)
IL-1β ng/(ml* No. of cells from photo) ± SD (interleukin 1β (IL-1β); 1 µM, Standard conditions): 96±101 ng/(ml* No. of cells from photo)
IL-1β production (effect in words) (interleukin 1β (IL-1β); 1 µM, standard conditions): inhibits the production of IL-1β
IL-1β production (effect in words) (interleukin 1β (IL-1β); 10 µM, 34 ng/ml TGF-β1): stimulates IL-1β production
IL-1β ng/(ml* No. of cells from photo) ± SD (interleukin 1β (IL-1β); 10 µM, 34 ng/ml TGF-β1): 1632±93 ng/(ml* No. of cells from photo)
IL-1β production (effect in words) (interleukin 1β (IL-1β); 10 µM, 100 µM H2O2): stimulates IL-1β production
IL-1β ng/(ml* No. of cells from photo) ± SD (interleukin 1β (IL-1β); 10 µM, 100 µM H2O2): 1735±469 ng/(ml* No. of cells from photo)
IL-1β ng/(ml* No. of cells from photo) ± SD (interleukin 1β (IL-1β); 10 µM, Standard conditions): 144±4 ng/(ml* No. of cells from photo)
IL-1β production (effect in words) (interleukin 1β (IL-1β); 10 µM, standard conditions): stimulates IL-1β production
Anti-fibrotic (prevention of scar formation, also from acne) (HDF cells [3]; [6]): Yes (↓collagen, ↓IL-6, ↓IL-1β)
Cytoprotective (antioxidant, anti-inflammatory and anti-ageing; useful also in the treatment of acne) (HDF cells [3]; [6]): Yes (↓IL-6, ↓IL-1β)
Cytotoxic (HDF cells [3]; [6]): No
Irritant (HDF cells [3]; [6]): No
Wound-healing (HDF cells [3]; [6]): Yes (↑prolif, ↓IL-1β)
Anti-fibrotic (prevention of scar formation, also from acne) (HDF cells [3]; Dose 10 µm): No
Cytoprotective (antioxidant, anti-inflammatory and anti-ageing; useful also in the treatment of acne) (HDF cells [3]; Dose 10 µm): No
Cytotoxic (HDF cells [3]; Dose 10 µm): Yes (cell death, ↓dehydrogenase)
Irritant (HDF cells [3]; Dose 10 µm): Yes (↑IL-6, ↑IL-1β)
Wound-healing (HDF cells [3]; Dose 10 µm): No
concentrations at which no toxic (cytotoxic and irritant) effects are shown (HDF cells [3]; exposure for 24 hours): less than or equal to 1 µM
collagen production (effect in words) ([4]; 1 µM, 34 ng/ml TGF-β1): antagonizes the stimulation of collagen induced by 34 ng/ml TGF-β1
collagen production (effect in words) ([4]; 1 µM, 100 µM H2O2): tendency to stimulate collagen production
collagen production (effect in words) ([4]; 1 µM, standard conditions): tendency to inhibit collagen production
collagen production (effect in words) ([4]; 10 µM, 34 ng/ml TGF-β1): stimulates collagen production
collagen production (effect in words) ([4]; 10 µM, 100 µM H2O2): stimulates collagen production
collagen production (effect in words) ([4]; 10 µM, standard conditions): stimulates collagen production
concentrations above which the predominant effect is inhibition of mitochondrial dehydrogenase activity [5]: higher than 1 nM
mitochondrial dehydrogenase activity (effect in words) ([5]; 1 µM, 18 h): stimulation of mitochondrial dehydrogenase activity
Revitalizing agent [5, 6]: Yes
Revitalizing agent ([5]; Dose 10 µm): No
activity at 1 µM ([5]; 18 h): 107 ± 10.5%
activity at 10 µM ([5]; 18 h): 0.87 ± 0.74%
activity at 1 µM ([5]; 42 h): 63.9 ± 4.3%
activity at 10 µM ([5]; 42 h): 0.63 ± 8.46%
inhibitory power toward the mitochondrial dehydrogenase activity ([5]; skin fibroblast cells and/or keratinocytes): marked inhibitory power
